{
  "source": "patent US10231956B2",
  "about": "“3-(1H-pyrrolo[3,2-C]pyridin-2-YL)-1 H-pyrazolo[4,3-B]pyridines and therapeutic uses thereof” (Samumed, LLC, priority 2015, dated 2019)",
  "key": {"[1]": {"test_system": "Wnt activity (Sp5-Luc reporter, SW480 colon carcinoma cells)", "experiment": "Sp5-Luc reporter gene screening assay for Wnt activity in SW480 cells", "type": "cell-based", "settings": "Homo sapiens; for EC50: luminescence, overnight incubation; for inhibition at 10 µM: given for EC50 >10 μM, read-out: percent inhibition at 10 μM", "outline": "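Luminescence read-out (BrightGlo) from stable Sp5-Luc SW480 cells, normalized to DMSO-only wells. Cells were treated overnight at 37° C in 1% FBS medium across a 1:3, 10-point series starting at 10 μM. EC50 from variable-slope four-parameter regression; percent inhibition at 10 μM given where EC50 >10 μM.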"}, "[2]": {"test_system": "primary human fibroblasts derived from IPF patients (LL29 cells)", "experiment": "Inhibition of fibrotic process: αSMA staining in TGF-β1 treated LL29 fibroblasts", "type": "cell-based", "settings": "Fibroblast; for EC50: 96 h, TGF-β1 20 ng/mL, 4 days, % cells positive for αSMA", "outline": "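LL29 cells at 1,500/well in F12 with 1% FBS, compounds at 1 μM–1.87 nM (11-point, 0.1% DMSO), TGF-β1 20 ng/mL added 1 h later, 4 days at 37 °C. SYTOX-positive cells excluded; % αSMA-positive cells by immunofluorescence imaging, normalized to TGF-β1/DMSO wells, triplicates fitted for EC50; above 10 μM, % inhibition at 10 μM given.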"}},
  "data": [
    {"compound": "CC(C)CC(=O)Nc1cncc(-c2ccc3[nH]nc(-c4cc5c(N6CCN(C)CC6)nccc5[nH]4)c3n2)c1", "note": "[Compound 226, 3-Methyl-N-(5-(3-(4-(4-methylpiperazin-1-yl)-1H-pyrrolo[3,2-c]pyridin-2-yl)-1H-pyrazolo[4,3-b]pyridin-5-yl)pyridin-3-yl)butanamide]", "values": [
      {"measurement": "EC50", "setting": "[1]", "result": 3.94, "unit": "µM"},
      {"measurement": "EC50", "setting": "[2]", "result": 0.325, "unit": "µM"}
    ]},
    {"compound": "Cc1ccncc1-c1ccc2[nH]nc(-c3cc4c(N5CCN(C)CC5)nccc4[nH]3)c2n1", "note": "[Compound 229, 3-(4-(4-Methylpiperazin-1l-yl)-1H-pyrrolo[3,2-c]pyridin-2-yl)-5-(4-methylpyridin-3-yl)-1H-pyrazolo[4,3-b]pyridine]", "values": [
      {"measurement": "EC50", "setting": "[1]", "result": 0.828, "unit": "µM"},
      {"measurement": "EC50", "setting": "[2]", "result": 0.949, "unit": "µM"}
    ]},
    {"compound": "CN1CCN(c2nccc3[nH]c(-c4n[nH]c5ccc(-c6cncc(NC(=O)c7ccccc7)c6)nc45)cc23)CC1", "note": "[Compound 235, N-(5-(3-(4-(4-Methylpiperazin-1l-yl)-1H-pyrrolo[3,2-c]pyridin-2-yl)-1H-pyrazolo[4,3-b]pyridin-5-yl)pyridin-3-yl)benzamide]", "values": [
      {"measurement": "inhibition at 10 µM", "setting": "[1]", "result": 49.1, "unit": "%"},
      {"measurement": "EC50", "setting": "[1]", "result": "> 10", "unit": "µM"},
      {"measurement": "EC50", "setting": "[2]", "result": 2.25, "unit": "µM"}
    ]},
    {"compound": "CN1CCN(c2nccc3[nH]c(-c4n[nH]c5ccc(-c6cncc(CN7CCCCC7)c6)nc45)cc23)CC1", "note": "[Compound 239, 3-(4-(4-methylpiperazin-1-yl)-1H-pyrrolo[3,2-c]pyridin-2-yl)-5-(5-(piperidin-1-ylmethyl)pyridin-3-yl)-1H-pyrazolo[4,3-b]pyridine]", "values": [
      {"measurement": "EC50", "setting": "[1]", "result": 4.28, "unit": "µM"},
      {"measurement": "EC50", "setting": "[2]", "result": 1.51, "unit": "µM"}
    ]},
    {"compound": "CN1CCN(c2nccc3[nH]c(-c4n[nH]c5ccc(-c6cncnc6)nc45)cc23)CC1", "note": "[Compound 251, 3-(4-(4-Methylpiperazin-1l-yl)-1H-pyrrolo[3,2-c]pyridin-2-yl)-5-(pyrimidin-5-yl)-1H-pyrazolo[4,3-b]pyridine]", "values": [
      {"measurement": "EC50", "setting": "[1]", "result": 3.07, "unit": "µM"},
      {"measurement": "EC50", "setting": "[2]", "result": 1.4, "unit": "µM"}
    ]},
    {"compound": "c1cncc(-c2ccc3[nH]nc(-c4cc5cnccc5[nH]4)c3n2)c1", "note": "[Compound 256, 5-(Pyridin-3-yl)-3-(1H-pyrrolo[3,2-c]pyridin-2-yl)-1H-pyrazolo[4,3-b]pyridine]", "values": [
      {"measurement": "EC50", "setting": "[1]", "result": 0.251, "unit": "µM"},
      {"measurement": "EC50", "setting": "[2]", "result": 0.243, "unit": "µM"}
    ]},
    {"compound": "CCNCc1cncc(-c2ccc3[nH]nc(-c4cc5cnccc5[nH]4)c3n2)c1", "note": "[Compound 258, N-((5-(3-(1H-Pyrrolo[3,2-c]pyridin-2-yl)-1H-pyrazolo[4,3-b]pyridin-5-yl)pyridin-3-yl)methyl)ethanamine]", "values": [
      {"measurement": "EC50", "setting": "[1]", "result": 3.47, "unit": "µM"},
      {"measurement": "EC50", "setting": "[2]", "result": "> 10", "unit": "µM"},
      {"measurement": "inhibition at 10 µM", "setting": "[2]; given for EC50 >10 μM, TGF-β1, αSMA, 10 μM, read-out: percent inhibition at 10 μM", "result": 22.6, "unit": "%"}
    ]},
    {"compound": "CN(C)Cc1cncc(-c2ccc3[nH]nc(-c4cc5cnccc5[nH]4)c3n2)c1", "note": "[Compound 265, 1-(5-(3-(1H-Pyrrolo[3,2-c]pyridin-2-yl)-1H-pyrazolo[4,3-b]pyridin-5-yl)pyridin-3-yl)-N,N-dimethylmethanamine]", "values": [
      {"measurement": "EC50", "setting": "[1]", "result": 1.69, "unit": "µM"},
      {"measurement": "EC50", "setting": "[2]", "result": 3.12, "unit": "µM"}
    ]},
    {"compound": "FC1(F)CCN(Cc2cncc(-c3ccc4[nH]nc(-c5cc6cnccc6[nH]5)c4n3)c2)C1", "note": "[Compound 278, 5-(5-((3,3-Difluoropyrrolidin-1-yl)methyl)pyridin-3-yl)-3-(1H-pyrrolo[3,2-c]pyridin-2-yl)-1H-pyrazolo[4,3-b]pyridine]", "values": [
      {"measurement": "EC50", "setting": "[1]", "result": 0.052, "unit": "µM"},
      {"measurement": "EC50", "setting": "[2]", "result": 0.068, "unit": "µM"}
    ]},
    {"compound": "c1cc2[nH]c(-c3n[nH]c4ccc(-c5cncnc5)nc34)cc2cn1", "note": "[Compound 279, 5-(Pyrimidin-5-yl)-3-(1H-pyrrolo[3,2-c]pyridin-2-yl)-1H-pyrazolo[4,3-b]pyridine]", "values": [
      {"measurement": "EC50", "setting": "[1]", "result": 2.35, "unit": "µM"},
      {"measurement": "EC50", "setting": "[2]", "result": 2.57, "unit": "µM"}
    ]},
    {"compound": "c1csc(-c2nccc3[nH]c(-c4n[nH]c5ccc(-c6ccncc6)nc45)cc23)c1", "note": "[Compound 354, 5-(Pyridin-4-yl)-3-(4-(thiophen-2-yl)-1H-pyrrolo[3,2-c]pyridin-2-yl)-1H-pyrazolo[4,3-b]pyridine]", "values": [
      {"measurement": "inhibition at 10 µM", "setting": "[1]", "result": 33.6, "unit": "%"},
      {"measurement": "EC50", "setting": "[1]", "result": "> 10", "unit": "µM"},
      {"measurement": "EC50", "setting": "[2]", "result": 2.72, "unit": "µM"}
    ]},
    {"compound": "CC(C)CC(=O)Nc1cncc(-c2ccc3[nH]nc(-c4cc5c(-c6cc(F)cc(CNS(C)(=O)=O)c6)nccc5[nH]4)c3n2)c1", "note": "[Compound 478, N-(5-(3-(4-(3-Fluoro-5-(methylsulfonamidomethyl)phenyl)-1H-pyrrolo[3,2-c]pyridin-2-yl)-1H-pyrazolo[4,3-b]pyridin-5-yl)pyridin-3-yl)-3-methylbutanamide]", "values": [
      {"measurement": "EC50", "setting": "[1]", "result": 0.624, "unit": "µM"},
      {"measurement": "EC50", "setting": "[2]", "result": 5.7, "unit": "µM"}
    ]}
  ]
}
